Measured values taken from patent US8808715B1, “Methods and compositions for modulating keratinocyte function” (Georgia Regents Research Institute, Inc, priority 2004, dated 2014).

Tests used:
PLD = PLD activity (radiolabeled phosphatidylethanol formation in [3H]oleate-prelabeled keratinocytes); type: cell-based, mouse; conditions: 100 nM PMA, 30 minutes, 0.5% ethanol; p<0.02
Description: Near-confluent keratinocytes were incubated without radiolabel (for phosphatidylglycerol production) or pre-labeled with 2.5 μCi/mL [^3H]oleate (for phosphatidylethanol formation) for 20-24 hours. The cells were then stimulated for 30 minutes with vehicle (0.05-0.1% DMSO; Con) or 100 nM PMA in the presence of [^3H]glycerol (for phosphatidylglycerol production), or in the presence of 0.5% ethanol (for phosphatidylethanol formation). Reactions were terminated by the addition of 0.2% SDS (±5 mM EDTA) and radiolabeled phosphatidylglycerol (PG), or phosphatidylethanol (PEt) was extracted, separated by thin-layer chromatography and quantified. Values are expressed as -fold over control and represent the means±SEM of three separate experiments performed in duplicate or triplicate; *p<0.02 versus the appropriate control by an unpaired Student's t-test.
For the PLD assay cultured primary keratinocytes were labeled for 20-24 hours with 2.5 μCi/ml [^3H] oleic acid. The cells were then exposed to vehicle or 100 nM PMA in the presence of 0.5% ethanol for 30 minutes. […] Reactions were terminated and the radiolabeled phosphatidylalcohol extracted, separated by thin-layer chromatography and quantified as described by Bollag (1998), referenced above.

[1] = system: primary epidermal keratinocytes; assay: Radiolabeled phosphatidylglycerol formation in intact keratinocytes; type: cell-based, mouse; conditions: 100 nM PMA, 30 minutes with [3H]glycerol; p<0.01
Description: Primary epidermal keratinocytes were prepared from 1-3-day old neonatal ICR mice after trypsin flotation of the skin and mechanical separation of the epidermis from the dermis. The epidermal cells were released by scraping, collected by centrifugation and plated in 6-well dishes in a medium consisting of MEM containing 25 μM calcium, 2% dialyzed fetal bovine serum, 2 mM glutamine, 5 ng/mL EGF, ITS (6.25 μg/mL insulin+6.25 μg/mL transferrin+6.25 ng/mL selenious acid+5.35 μg/mL linoleic acid+1.25% bovine serum albumin), 100 U/mL penicillin, 100 μg/mL streptomycin and 0.25 μg/mL fungizone. After an overnight incubation, the cells were refed with serum-free keratinocyte medium (SFKM), in which 2% dialyzed fetal bovine serum was replaced with 90 μg/mL bovine pituitary extract. Cells were refed with fresh medium every 1-3 days.
For the PLD assay cultured primary keratinocytes were labeled for 20-24 hours with 2.5 μCi/ml [^3H] oleic acid. The cells were then exposed to vehicle or 100 nM PMA in the presence of 0.5% ethanol for 30 minutes. To measure the formation of radiolabeled phosphatidylglycerol, cells were treated for 24 hours with SFKM containing vehicle, 250 nM 1,25-dihydroxyvitamin D3 or 125 μM calcium and then labeled for an additional 30 minutes with 1-2.5 μCi/mL [^3H] or 0.4-0.5 μCi/mL [^14C]glycerol. For experiments investigating the extracellular calcium dependence of PG formation, cells were incubated for 24 hours in SFKM containing various calcium concentrations prior to the addition of 5 μCi/mL [^3H]glycerol for 30 minutes. In some cases, cells were stimulated with 25 μM calcium (control)—or 125 μM calcium-containing SFKM for 24 hours prior to the addition of [^14C]glycerol in the presence and absence of 1% ethanol. To measure phosphatidylglycerol formation in response to PMA, unlabeled cells were stimulated with 100 nM PMA in the presence of radiolabeled glycerol, as above. Reactions were terminated and the radiolabeled phosphatidylalcohol extracted, separated by thin-layer chromatography and quantified as described by Bollag (1998), referenced above.

primary keratinocytes = assay: [3H]Glycerol uptake; type: cell-based, mouse; conditions: 30 minutes pretreatment with 100 nM PMA, then [3H]glycerol 5 minutes
Description: Confluent primary keratinocytes were incubated for 30, 60, 90, 120, 300 or 600 seconds with SFKM containing 20 mM HEPES (for additional pH buffering), 1 μCi/mL [^3H]glycerol and 0.1% DMSO (control) or 100 nM PMA. Reactions were terminated by washing three times with ice-cold phosphate-buffered saline lacking divalent cations. The cells were subsequently solubilized in 0.3 M NaOH and aliquots of this extract subjected to liquid scintillation counting. Counts obtained from duplicate samples at each time point were averaged and graphed, and a linear equation was determined for each condition. Correlation coefficients obtained were typically 0.99 or greater (mean correlation coefficient for control was 0.992±0.002 and for PMA, 0.994±0.001). Slopes obtained from multiple experiments were averaged and analyzed statistically for significant differences between conditions.
The linearity of glycerol uptake determined above allowed measurement of uptake at a single time point to determine the effects of other treatments on this process. Thus, confluent keratinocytes were preincubated for 30 minutes with 0.1% DMSO (control) or 100 nM PMA prior to measuring [^3H]glycerol uptake as above but at 5 minutes only. Similarly, near-confluent primary keratinocytes were incubated for 24 hours with SFKM containing various calcium concentrations prior to measurement of radiolabeled glycerol uptake for 5 minutes.
Near-confluent keratinocyte cultures were incubated for 24 hours in SFKM (25 μM calcium) or SFKM containing 125 μM calcium (125 μM Ca^2+-SFKM) and the glycerol uptake assay performed as previously described in Zheng & Bollag (2003). Briefly, cells were incubated with SFKM containing 20 mM HEPES (for additional pH buffering) and 1 μCi/mL [^3H] glycerol for 5 minutes, since it has previously been shown that this time point is in the linear range of [^3H]glycerol uptake (Zheng & Bollag (2003). Reactions were terminated by rapidly washing three times with ice-cold phosphate-buffered saline lacking divalent cations (PBS-). Cells were then solubilized in 0.3 M NaOH and [^3H]glycerol uptake quantified by liquid scintillation spectroscopy.

AQP3 null mutant mouse = conditions: studies of the AQP3 null mutant mouse; cited from earlier work
keratin 5 promoter = assay: Co-transfection analysis, keratin 5 promoter-luciferase reporter; type: cell-based, mouse; conditions: glycerol 0.2%, 24 hours
Description: FIGS. 15A-B illustrate that glycerol, but not xylitol or sorbitol, inhibits DNA synthesis and enhances the inhibitory effect of an elevated extracellular Ca^2+ concentration. (A) Near-confluent keratinocytes were incubated for 24 hours with 0.02 or 0.1% glycerol and DNA synthesis measured as the incorporation of [^3H] thymidine incorporation into DNA. (B) Near-confluent keratinocytes were incubated for 24 hours with the indicated concentrations of glycerol (G, squares) or equivalent concentrations of xylitol (X, circles) in SFKM containing 25 μM (control; open symbols) or 125 μM Ca^2+ (Ca^2+; closed symbols). (C) Near-confluent keratinocytes were incubated for 24 hours with the indicated concentrations of glycerol (G) or equivalent concentrations of sorbitol (S, triangles) in SFKM containing 25 μM (control; open symbols) or 125 μM Ca^2+ (Ca^2+; closed symbols) for 24 hours. [^3H]Thymidine incorporation into DNA was then determined. Values represent the means±SEM of 4 to 5 separate experiments performed in duplicate; *p<0.05, **p<0.01 versus the control value, †p<0.05 versus the value in the presence of Ca^2+ alone. […] After 24 hours cells were refed with medium containing no addition (control) or 0.2% glycerol for an additional 24 hours. Luciferase activity was then measured using a Dual Luciferase kit as directed by the manufacturer. […] The blots were quantified using the Kodak molecular imaging software. […]
The keratin 5 and keratin 10 promoter-luciferase constructs were provided by of Dr. Bogi Andersen (University of California, Irvine, Calif.); the involucrin promoter-luciferase construct was provided by Dr. Daniel Bikle (University of California, San Francisco, Calif.). […] Luciferase activity was then measured using the Dual Luciferase Reporter Assay kit (Promega, Madison, Wis.) as directed by the manufacturer.

[2] = system: rapidly dividing keratinocytes; assay: Assay of DNA synthesis ([3H]thymidine incorporation) in rapidly dividing keratinocytes; type: cell-based; conditions: 24 hours
Description: Keratinocytes were prepared from ICR CD-I outbred mice in accordance with a protocol approved by the Institutional Animal Care and Use Committee. Briefly, the skins were harvested and incubated overnight in 0.25% trypsin at 4° C. The epidermis and dermis were separated and basal keratinocytes scraped from the underside of the epidermis. The cells were collected by centrifugation and incubated overnight in an atmosphere of 95% air/5% carbon dioxide at 37° C. in plating medium as described in Dodd M E, Ristich V L, Ray S, Lober R M, Bollag W B (2005) Regulation of protein kinase D during differentiation and proliferation of primary mouse keratinocytes. J Invest Dermatol 125:294-306, incorporated herein by reference. The plating medium was replaced with serum-free keratinocyte medium (SFKM) also as in Dodd, et al., and the cells were refed every 1-2 days with fresh medium until use.
[^3H]Thymidine incorporation into DNA was determined as a measure of DNA synthesis as previously described by Griner, et al., above. Near-confluent keratinocyte cultures were incubated for 24 hours in SFKM containing the indicated additions. PG was added in the form of liposomes prepared by bath sonication of dried PG in SFKM to make a stock solution of 2 mg/mL. [^3H]Thymidine at a final concentration of 1 μCi/mL was then added to the cells for an additional 1-hour incubation. Reactions were terminated by washing with PBS- and macromolecules precipitated with ice-cold 5% trichloroacetic acid. Cells were solubilized in 0.3 M NaOH and the radioactivity incorporated into DNA quantified by liquid scintillation spectroscopy.
[^3H]Thymidine incorporation was used as a measure of DNA synthesis and was performed as described in Example 2. Liposomes containing PG and functional derivatives thereof were prepared by bath sonication as described in Example 2, with the exception that different concentrations of material were employed.

PLD-2 = molecular target: T1, PLD-2 (Homo sapiens, UniProt O14939); assay: In vitro assay of phosphatidylglycerol formation by PLD-2 (transphosphatidylation); type: biochemical
T1 construct: purchased Onyx Pharmaceuticals; host or cells: Sf9 insect cells (membrane preparation)
Description: FIGS. 5 A and B illustrate that glycerol serves as a substrate for phospholipase D in the transphosphatidylation reaction in vitro. Liposomes were prepared from [^3H-dipalmitoyl]phosphatidylcholine, phosphatidylethanolamine, phosphatidylcholine and phosphatidylinositol 4,5-bisphosphate by sonication. Glycerol at the indicated concentrations in the absence (A) or presence of 1% ethanol (B) was added to the reaction mix. Reactions were initiated by the addition of Sf9 PLD2-overexpressing membranes (1 μg protein), incubated for 30 minutes at 37° C. and terminated by the addition of 0.2% SDS (±5 mM EDTA). Lipids were extracted, separated, and quantified. The figure is representative of at least two additional experiments. There was some variability in the absolute levels of phosphatidic acid (PA), PG and phosphatidylethanol (PEt) formed, likely due to variations in the extent of formation of multilamellar vesicles during sonication.
PLD-2 activity was measured in vitro with [^3H-palmitoyl]phosphatidylcholine as substrate. […] Lipids were extracted according to the method of Bligh and Dyer and radiolabeled phospholipids separated and quantified, as described in W. B. Bollag, “Measurement of phospholipase D activity, Methods” Mol. Biol. 105 (1998) 151-160, incorporated herein by reference.

ICR CD1 mice = assay: Wound healing of full-thickness skin punch biopsies; type: in vivo, mouse; conditions: topical; 2M glycerol in water, or 100 μg/mL phosphatidylglycerol liposomes in PBS-
Excerpt: This example presents recent data on the effects of glycerol and phosphatidylglycerol treatment on wound healing obtained in ICR CD1 mice. Two full-thickness skin punch biopsies of˜4 mm were made on the backs of a total of sixteen mice. […] The rate of wound healing was then followed over four days by digital photography and computer image analysis.

T1 sequence (O14939 whole entry, species assumed): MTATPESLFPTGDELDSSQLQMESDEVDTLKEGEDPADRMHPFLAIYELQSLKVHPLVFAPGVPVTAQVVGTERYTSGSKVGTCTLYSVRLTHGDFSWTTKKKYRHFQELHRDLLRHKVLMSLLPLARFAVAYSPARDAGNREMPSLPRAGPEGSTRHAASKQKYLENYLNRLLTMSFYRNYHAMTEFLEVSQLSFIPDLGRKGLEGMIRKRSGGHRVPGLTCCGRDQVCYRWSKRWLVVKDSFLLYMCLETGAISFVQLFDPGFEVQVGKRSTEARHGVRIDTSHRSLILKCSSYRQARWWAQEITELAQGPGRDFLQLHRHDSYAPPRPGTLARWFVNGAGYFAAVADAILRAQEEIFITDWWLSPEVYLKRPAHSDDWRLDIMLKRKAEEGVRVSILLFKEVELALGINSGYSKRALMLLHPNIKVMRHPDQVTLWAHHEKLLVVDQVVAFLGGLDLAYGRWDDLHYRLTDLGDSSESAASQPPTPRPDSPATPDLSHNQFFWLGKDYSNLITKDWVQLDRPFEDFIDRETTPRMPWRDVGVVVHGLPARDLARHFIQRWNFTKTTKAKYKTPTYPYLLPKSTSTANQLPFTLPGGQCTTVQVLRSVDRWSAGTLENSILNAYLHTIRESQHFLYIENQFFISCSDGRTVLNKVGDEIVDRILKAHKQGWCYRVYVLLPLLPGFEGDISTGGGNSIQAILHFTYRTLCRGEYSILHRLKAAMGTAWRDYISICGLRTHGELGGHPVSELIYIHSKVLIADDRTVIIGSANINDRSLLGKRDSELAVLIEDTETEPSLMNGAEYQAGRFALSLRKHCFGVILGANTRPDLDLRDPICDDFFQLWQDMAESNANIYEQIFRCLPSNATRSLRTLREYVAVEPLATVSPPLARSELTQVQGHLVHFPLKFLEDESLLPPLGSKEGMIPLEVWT

Compound	PLD activity (radiolabeled phosphatidylethanol formation) (PLD)	PG production [1]	glycerol uptake (primary keratinocytes)	correction of the epidermal phenotype of the knockout model (AQP3 null mutant mouse)	reduction in keratin 5 promoter activity (keratin 5 promoter; empty vector) [%]	reduction in keratin 5 promoter activity (keratin 5 promoter; keratinocytes transfected with AQP3) [%]	effect on DNA synthesis in presence of 125 μM Ca2+ ([2]; 125 μM Ca2+ medium)	effect on DNA synthesis ([3H]thymidine incorporation into DNA) ([2]; control (25 μM Ca2+) medium)	lowest concentration that significantly inhibited DNA synthesis ([2]; 0.02% = 2.73 mM) [%]	formation of PG from phosphatidylcholine (glycerol as substrate for transphosphatidylation) (PLD-2; PLD2-overexpressing Sf9 membranes, 30 minutes at 37° C.)	competition with ethanol in the transphosphatidylation reaction (PLD-2; in presence of 1% ethanol)	rate of wound healing (percentage on day 4 relative to day 1) (ICR CD1 mice)
CCCCCCCCCCCCCC(=O)O[C@@H]1[C@@H](C)[C@@]2(O)[C@@H](C=C(CO)C[C@]3(O)C(=O)C(C)=C[C@@H]23)[C@@H]2C(C)(C)[C@]12OC(C)=O [PMA, Phorbol 12-myristate 13-acetate]	large increase in PLD activity	decrease in PG production	decrease in glycerol uptake									
OCC(O)CO [glycerol]				could correct the epidermal phenotype	~9	~47	enhanced the inhibitory effect of 125 μM Ca^2+	inhibited DNA synthesis	0.02	PLD2 catalyzed the formation of PG from phosphatidylcholine in the presence of glycerol	could compete with the primary alcohol ethanol to generate PG in place of phosphatidylethanol	improved the rate of wound healing
